How the values were obtained:
male M. hirsutus = test: Field bioassay: sticky traps baited with rubber septa lures; format: in vivo, Maconellicoccus hirsutus; conditions: (R)-lavandulol and (R)-maconelliol together, equal amount to ester, 1 and 10-μg doses, 1:5
Procedure: Field Bioassays: Gray halo-butyl rubber septa (5 mm, West Pharmaceutical Services, Kearney, Nebr.) loaded with 1 μg of RS, SR, RR, and SS binary diastereoisomeric mixtures of two candidate pheromone compounds placed on white sticky cards (Pherocon V traps, Trécé, Salinas, Calif.) were used for the field trails in Florida. Treatments were arranged in a randomized complete block design with nine replicates and about ˜1 m between traps within replicates. The cards were attached to the top of metal rods and placed one foot above hibiscus plants in a hedgerow. Cards were collected, put separately in transparent plastic bags, and brought back to the laboratory to count the trapped male PHM under a microscope. Comparisons were made between candidate synthetic mixtures and a blank control trap.
Field bioassays: Gray halo-butyl rubber septa (5 mm, West Pharmaceutical Services, Kearney, Nebr.) were soxhlet extracted with acetone for 48 hr and dried in a fume hood before use. The cleaned septa were loaded with the desired rates of candidate pheromone components in ˜40 μl of hexane solution, and used for field tests. The same amount of hexane was loaded on septa for the blank controls. […]

[1] = test system: male M. hirsutus antennae; conditions: alcoholic moieties found in volatile extracts; Zhang et al. 2004; cited from earlier work
[2] = test system: male M. hirsutus antennae; test: Coupled GC-EAD of male antennae; set-up: species or system Maconellicoccus hirsutus; conditions: GC-EAD of female airborne extracts
Procedure: Analytical Methods: The coupled gas chromatographic-electroantennographic detection (GC-EAD) system used was as previously described (Zhang, A., et al., J. Chem. Ecol., 23: […] (1997); Zhang, A., et al., J. Chem. Ecol., 25: 1221-1232 (1999); Zhang, A., and S. Polavarapu, J. Chem. Ecol., 29: 2153-2164 (2003)). A HP 6890 GC equipped with a 60 m×0.25-mm ID, 0.25-μm film-thickness DB-WAXETR (J&W Scientific Inc., Folsom, Calif.) capillary column in the splitless mode with hydrogen (1.4 ml/min) as carrier was used for analysis. The column temperature program was hold at 80° C. for 2 min, then heated to 250° C. at 15° C./min and held for 15 min. Electron impact mass spectrometry (EI mass) was conducted on a HP 6890 GC coupled to a HP 5973 Mass Selective Detector using an a 60 m×0.25-mm ID, 0.25-μm film-thickness DB-WAXETR capillary column at 50° C. for 2 min, then programmed to 230° C. at 15° C./min and held for 15 min or a 30 m×0.25-mm ID, 0.25-μm film-thickness DB-1 capillary column (50° C. for 2 min, then programmed to 300° C. at 15° C./min and held for 15 min) with helium as carrier gas. […] GC-Fourier transform infrared (FTIR) spectra were recorded on a HP GC coupled to a Bio-Rad IRD II infrared detector using a 60 m DB-WAXETR capillary column with conditions as described as above. […] NMR spectra were recorded in C6D6 solution on a Bruker QE Plus spectrometer at 300 MHz for ^1H. […]

| SMILES | effect on attraction to the RS isomers (male M. hirsutus) | antennal activity [1] | EAD response of male M. hirsutus antennae [2] |
| --- | --- | --- | --- |
| C=C(C)[C@H](CO)CC=C(C)C [(R)-lavandulol, (R)-(−)-lavandulol, reference compound] | significantly reduced attraction | did not elicited any antennal activity | – |
| CC[C@H](C)C(=O)OC[C@@H]1CC(=C(C)C)C1(C)C [compound 2, [(R)-2,2-Dimethyl-3-(1-methylethylidene)cyclobutyl]methyl (S)-2-methylbutanoate] | – | – | consistently responded |
| C=C(C)[C@@H](CC=C(C)C)COC(=O)[C@@H](C)CC [compound 1, (R)-2-Isopropenyl-5-methylhex-4-enyl (S)-2-methylbutanoate] | – | – | consistently responded |
| CC(C)=C1C[C@@H](CO)C1(C)C [(R)-maconelliol, [(R)-(−)-2,2-Dimethyl-3-(1-methylethylidene)cyclobutyl]methanol] | significantly reduced attraction | did not elicited any antennal activity | – |
